Measured values reported in ChEMBL document CHEMBL3217710, “Antimalarial peroxides: advances in drug discovery and design” (Medchemcomm, 2012).

Assays:
Plasmodium falciparum [1] = assay: Antimalarial activity against chloroquine-resistant Plasmodium falciparum K1; assay type: functional, organism-based
[2] = Half life in simulated stomach acid; assay type: ADME
Plasmodium berghei [3] = assay: Antimalarial activity against chloroquine-sensitive Plasmodium berghei infected in mouse; assay type: functional
Plasmodium yoelii = assay: Antimalarial activity against chloroquine-resistant Plasmodium yoelii infected in po dosed mouse; assay type: functional
Plasmodium berghei [4] = assay: Antimalarial activity against Plasmodium berghei infected in sc dosed mouse; assay type: functional, organism-based
Plasmodium falciparum [5] = assay: Antimalarial activity against chloroquine-resistant Plasmodium falciparum; assay type: functional, organism-based
Plasmodium falciparum [6] = assay: Antimalarial activity against chloroquine-sensitive Plasmodium falciparum; assay type: functional, organism-based
Plasmodium vinckei [7] = assay: Antimalarial activity against Plasmodium vinckei infected in ip dosed mouse assessed as decrease in parasitemia by peters four day suppressive test; assay type: functional; conditions: 96 h
Plasmodium vinckei [8] = assay: Antimalarial activity against Plasmodium vinckei infected in po dosed mouse assessed as decrease in parasitemia by peters four day suppressive test; assay type: functional; conditions: 96 h
Plasmodium falciparum [9] = assay: Antimalarial activity against chloroquine-sensitive Plasmodium falciparum FCR-3; assay type: functional; conditions: FCR-3/Gambia
Plasmodium falciparum [10] = assay: Antimalarial activity against Plasmodium falciparum; assay type: functional, organism-based
[11] = Half life of the compound in HCl solution at pH 1; assay type: physicochemical
[12] = Oral bioavailability in rat at 50 mg/kg; assay type: ADME, organism-based; conditions: in vivo
[13] = Octanol-water partition coefficient, log P of the compound at pH 7.4; assay type: physicochemical
Plasmodium falciparum [14] = assay: Antimalarial activity against chloroquine-sensitive Plasmodium falciparum at 1.4 nM relative to control; assay type: functional
Plasmodium falciparum [15] = assay: Antimalarial activity against chloroquine-sensitive Plasmodium falciparum at 5.2 nM relative to control; assay type: functional
[16] = Therapeutic index, ratio of compound activity in mouse assessed as body weight gain to compound activity against Plasmodium berghei infected in mouse; assay type: organism-based; conditions: in vivo, read-out: TI
Plasmodium falciparum [17] = assay: Antimalarial activity against chloroquine-sensitive Plasmodium falciparum at 4.6 nM relative to control; assay type: functional
Plasmodium falciparum [18] = assay: Antimalarial activity against multi-drug resistant Plasmodium falciparum; assay type: functional, organism-based
[19] = Half life in human infected with Plasmodium; conditions: in vivo
Plasmodium falciparum [20] = assay: Antimalarial activity against chloroquine-sensitive Plasmodium falciparum NF54; assay type: functional, organism-based
[21] = Drug degradation at 40 degC after 1 month; assay type: physicochemical; conditions: read-out: Drug degradation
[22] = Drug degradation at 40 degC after 3 months; assay type: physicochemical; conditions: read-out: Drug degradation

Fc1ccc(C2=C[C@H]3OC4(CCCC4)OO[C@@]3(c3ccc(F)cc3)C2)cc1
IC50 (Plasmodium falciparum [1]): < 5 nM

C[C@H]1[C@@H](CCc2ccc(C(=O)O)cc2)O[C@@H]2O[C@]3(C)CC[C@H]4[C@H](C)CC[C@@H]1[C@@]24OO3
half-life [2]: 0.546 days

C[C@H]1[C@@H](Oc2ccc(C(F)(F)F)cc2)O[C@@H]2O[C@]3(C)CC[C@H]4[C@H](C)CC[C@@H]1[C@@]24OO3
ED50 (Plasmodium berghei [3]): 2.1 mg/kg

C[C@H]1[C@@H](CCN2CCN(c3cccc(C(F)(F)F)c3)CC2)O[C@@H]2O[C@]3(C)CC[C@H]4[C@H](C)CC[C@@H]1[C@@]24OO3
ED50 (Plasmodium yoelii): 3.1 mg/kg

C[C@H]1[C@@H](CCN2CCN(c3ccc(F)cc3)CC2)O[C@@H]2O[C@]3(C)CC[C@H]4[C@H](C)CC[C@@H]1[C@@]24OO3
ED50 (Plasmodium yoelii): < 10 mg/kg

C[C@H]1[C@@H](CCN2CCN(c3ccccc3)CC2)O[C@@H]2O[C@]3(C)CC[C@H]4[C@H](C)CC[C@@H]1[C@@]24OO3
ED50 (Plasmodium yoelii): < 10 mg/kg

C[C@H]1[C@@H](CCN2CCN(c3ccc([N+](=O)[O-])cc3)CC2)O[C@@H]2O[C@]3(C)CC[C@H]4[C@H](C)CC[C@@H]1[C@@]24OO3
ED50 (Plasmodium yoelii): < 10 mg/kg

COC1(c2ccc(S(C)(=O)=O)cc2)C=CC2(CCCCCC2)OO1 (stereo not drawn)
IC50 (Plasmodium berghei [4]): 31 nM

CC(C)C1=C[C@H]2OC3(CCC(NCCNc4ccnc5cc(Cl)ccc45)CC3)OO[C@@]2(C)CC1.O=C(O)CC(O)(CC(=O)O)C(=O)O (stereo partly drawn)
IC50 (Plasmodium falciparum [5]): 5 nM
IC50 (Plasmodium falciparum [6]): 4 nM
ED50 (Plasmodium vinckei [7]): 5 mg/kg
ED50 (Plasmodium vinckei [8]): 18 mg/kg

C1CCCCCC2(CCCCC1)OOCCCOO2
EC50 (Plasmodium falciparum [9]): 2.5 nM

C[C@@H]1CC[C@H]2[C@@H](C)C(Oc3ccccc3)O[C@@H]3O[C@@]4(C)CC[C@@H]1[C@]32OO4 (stereo partly drawn)
IC50 (Plasmodium falciparum [5]): 5.3 nM
IC50 (Plasmodium falciparum [6]): 3.9 nM

C[C@@H]1CC[C@H]2[C@@H](C)[C@](O)(C(F)(F)F)O[C@@H]3O[C@@]4(C)CC[C@@H]1[C@]32OO4
IC50 (Plasmodium falciparum [10]): 9.4 nM
half-life [11]: 31.7 days
bioavailability [12]: 28%

CO[C@@]1(C(F)(F)F)O[C@@H]2O[C@@]3(C)CC[C@H]4[C@H](C)CC[C@@H]([C@H]1C)[C@@]24OO3
IC50 (Plasmodium falciparum [10]): 0.8 nM
half-life [11]: 27.5 days

CCO[C@@]1(C(F)(F)F)O[C@@H]2O[C@@]3(C)CC[C@H]4[C@H](C)CC[C@@H]([C@H]1C)[C@@]24OO3
IC50 (Plasmodium falciparum [10]): 3.3 nM
half-life [11]: 20.8 days

C[C@@H]1CC[C@H]2[C@@H](C)[C@](OC(=O)CCC(=O)O)(C(F)(F)F)O[C@@H]3O[C@@]4(C)CC[C@@H]1[C@]32OO4
IC50 (Plasmodium falciparum [10]): 4.1 nM

C[C@H]1[C@H](N2CCOCC2)O[C@@H]2O[C@@]3(C)CC[C@H]4[C@H](C)CC[C@@H]1[C@@]24OO3
logD [13]: 3.05

C[C@H]1[C@H](N2CC[S+]([O-])CC2)O[C@@H]2O[C@@]3(C)CC[C@H]4[C@H](C)CC[C@@H]1[C@@]24OO3
logD [13]: 2.63

C[C@H]1[C@H](c2ccco2)O[C@@H]2O[C@@]3(C)CC[C@H]4[C@H](C)CC[C@@H]1[C@@]24OO3
inhibition at 0.0014 µM (Plasmodium falciparum [14]): 50%

Cc1ccc([C@@H]2O[C@@H]3O[C@@]4(C)CC[C@H]5[C@H](C)CC[C@@H]([C@H]2C)[C@@]35OO4)o1
inhibition at 0.0052 µM (Plasmodium falciparum [15]): 50%

C[C@H]1[C@@H](CC(C[C@H]2O[C@@H]3O[C@@]4(C)CC[C@H]5[C@H](C)CC[C@@H]([C@H]2C)[C@@]35OO4)C(=O)O)O[C@@H]2O[C@@]3(C)CC[C@H]4[C@H](C)CC[C@@H]1[C@@]24OO3 (stereo partly drawn)
selectivity ratio [16]: 167

CC(=O)OC1(C)CCC2CC1OO[C@]2(/C=C\c1ccc(F)cc1)c1ccccc1 (stereo partly drawn)
IC50 (Plasmodium falciparum [1]): 29 nM

CC(=O)OC1(C)CCC2CC1OO[C@]2(/C=C\c1ccc(Cl)cc1)c1ccccc1 (stereo partly drawn)
IC50 (Plasmodium falciparum [1]): 23 nM

CC1CCC2CC1OO[C@]2(C)/C=C/[C@H](O)C(C)(C)O (stereo partly drawn)
IC50 (Plasmodium falciparum [1]): 115 nM

CC1CCC2CC1OO[C@]2(C)/C=C/[C@@H](O)C(C)(C)O (stereo partly drawn)
IC50 (Plasmodium falciparum [1]): 56 nM

Cc1ccc(C2=C[C@H]3OC4(CCCC4)OO[C@@]3(c3ccc(C)cc3)C2)cc1
IC50 (Plasmodium falciparum [1]): < 5 nM

Fc1ccc(C2=C[C@H]3OC4(CCOCC4)OO[C@@]3(c3ccc(F)cc3)C2)cc1
IC50 (Plasmodium falciparum [1]): < 5 nM

C=C(C)[C@@H]1OO[C@]2(O[C@H]1C1CC1)[C@H]1CC3C[C@@H](C1)C[C@H]2C3
IC50 (Plasmodium falciparum [1]): < 5 nM

C=C(C)[C@@H]1OO[C@]2(O[C@H]1CCC)[C@H]1CC3C[C@@H](C1)C[C@H]2C3
IC50 (Plasmodium falciparum [1]): < 5 nM

OCCCCCCC1COOC2(CCCCCCCCCCC2)OOC1
EC50 (Plasmodium falciparum [9]): 2.3 nM

Clc1ccc2c(NCCNC3CCC4(CC3)OOC3(c5ccccc5)CC(c5ccccc5)=CC3O4)ccnc2c1 (stereo not drawn)
IC50 (Plasmodium falciparum [5]): 20 nM
IC50 (Plasmodium falciparum [6]): 7 nM

CC1(C)COC2(CCC(NC3CCC(Nc4ccnc5cc(Cl)ccc45)CC3)CC2)OO1 (stereo not drawn)
IC50 (Plasmodium falciparum [5]): 7 nM
IC50 (Plasmodium falciparum [6]): 7 nM

Cc1ccc(OC2O[C@@H]3O[C@@]4(C)CC[C@H]5[C@H](C)CC[C@@H]([C@H]2C)[C@@]35OO4)cc1 (stereo partly drawn)
IC50 (Plasmodium falciparum [5]): 5.3 nM
IC50 (Plasmodium falciparum [6]): 3.9 nM

C[C@@H]1CC[C@H]2[C@@H](C)C(Oc3ccc(C(F)(F)F)cc3)O[C@@H]3O[C@@]4(C)CC[C@@H]1[C@]32OO4 (stereo partly drawn)
IC50 (Plasmodium falciparum [5]): 5.3 nM
IC50 (Plasmodium falciparum [6]): 3.9 nM

COc1ccc(OC2O[C@@H]3O[C@@]4(C)CC[C@H]5[C@H](C)CC[C@@H]([C@H]2C)[C@@]35OO4)cc1 (stereo partly drawn)
IC50 (Plasmodium falciparum [5]): 5.3 nM
IC50 (Plasmodium falciparum [6]): 3.9 nM

C[C@@H]1CC[C@H]2[C@@H](C)C(Oc3ccc(F)cc3)O[C@@H]3O[C@@]4(C)CC[C@@H]1[C@]32OO4 (stereo partly drawn)
IC50 (Plasmodium falciparum [5]): 5.3 nM
IC50 (Plasmodium falciparum [6]): 3.9 nM

C[C@@H]1CC[C@H]2[C@@H](C)C(Oc3ccc(Cl)cc3)O[C@@H]3O[C@@]4(C)CC[C@@H]1[C@]32OO4 (stereo partly drawn)
IC50 (Plasmodium falciparum [5]): 5.3 nM
IC50 (Plasmodium falciparum [6]): 3.9 nM

C[C@@H]1CC[C@H]2[C@@H](C)C(Oc3ccc(-c4cccc5ccccc45)cc3)O[C@@H]3O[C@@]4(C)CC[C@@H]1[C@]32OO4 (stereo partly drawn)
IC50 (Plasmodium falciparum [5]): 5.3 nM
IC50 (Plasmodium falciparum [6]): 3.9 nM

C[C@H]1[C@H](c2cccn2C)O[C@@H]2O[C@@]3(C)CC[C@H]4[C@H](C)CC[C@@H]1[C@@]24OO3
inhibition at 0.0046 µM (Plasmodium falciparum [17]): 50%

C1CCCCCC2(CCCCC1)OOCCCCCOO2
EC50 (Plasmodium falciparum [9]): 1 nM

CO[C@H]1O[C@@H]2O[C@@]3(C)CC[C@H]4[C@H](C)CC[C@@H]([C@H]1C)[C@@]24OO3 [ARTEMETHER]
logD [13]: 4
ED50 (Plasmodium yoelii): 6 mg/kg

C[C@H]1[C@H](N2CCS(=O)(=O)CC2)O[C@@H]2O[C@@]3(C)CC[C@H]4[C@H](C)CC[C@@H]1[C@@]24OO3 [ARTEMIFONE]
logD [13]: 2.49
ED90 (Plasmodium berghei [4]; sc): 1.5 mg/kg
EC50 (Plasmodium falciparum [18]): 0.14 nM

C[C@H]1[C@H](N2CCSCC2)O[C@@H]2O[C@@]3(C)CC[C@H]4[C@H](C)CC[C@@H]1[C@@]24OO3 [ARTEMISIDE]
logD [13]: 4.97

C[C@@H]1CC[C@H]2[C@@H](C)C(=O)O[C@@H]3O[C@@]4(C)CC[C@@H]1[C@]32OO4 [ARTEMISININ]
half-life [19]: 0.0833 days
IC50 (Plasmodium falciparum [20]): 8.9 nM
IC50 (Plasmodium falciparum [1]): 2.8 nM

C[C@H]1[C@@H](O)O[C@@H]2O[C@@]3(C)CC[C@H]4[C@H](C)CC[C@@H]1[C@@]24OO3 [ARTENIMOL]
degraded at 730.5 h [21]: 2%
degraded at 2191.5 h [22]: 2.9%

C[C@H]1[C@H](OC(=O)CCC(=O)O)O[C@@H]2O[C@@]3(C)CC[C@H]4[C@H](C)CC[C@@H]1[C@@]24OO3 [SODIUM ARESUNATE]
EC50 (Plasmodium falciparum [18]): 0.73 nM

C[C@H]1[C@@H](OCc2ccc(C(=O)[O-])cc2)O[C@@H]2O[C@]3(C)CC[C@H]4[C@H](C)CC[C@@H]1[C@@]24OO3.[Na+] [SODIUMARTELINATE]
half-life [2]: 10.8 days
